# Test results reported in US12539337B2 (priority 2013, dated 2026).
# Entries after “also recorded” stand apart in the source; their conditions may differ.
# How the values were obtained:
# [1] = system: NMDARs; type: cell-based, rat; details: memantine alone; read-out: IC50 for blocking NMDARs
# Description: Primary cerebrocortical cultures were made from E16 rat pups and grown on 12-mm glass coverslips. Briefly, cortices were dissected from 1 to 2 days old rats and enzymatically treated (papain, 200 U/ml; 30 minutes, 37° C.). After mechanical dissociation in minimum essential medium (MEM; Gibco; Grand Island, NY, USA), the cells were plated into culture flasks and grown at 37° C. in a humidified 5% CO2/95% air atmosphere.
# Whole-cell voltage-clamp recordings were performed from neurons after 14 days in vitro. The extracellular solution contained: 135 mM NaCl, 2.5 mM KCl, 2 mM CaCl2, 0-0.01 mM MgCl2, 1 mM NaHCO3, 0.34 mM Na2HPO4, 0.44 mM KH2PO4, 20 mM glucose, 10 mM Hepes, pH 7.4. Patch electrodes with a final tip resistance of 4-7 MΩ, were filled with a solution containing (in mM): 120 mM CsCl, 20 mM tetraethylammonium chloride (TEA-Cl), 10 mM Hepes, 2.25 mM EGTA, 1 mM CaCl2, 2 mM MgCl2, 0.001 mM and phalloidin, pH 7.4. pCLAMP 10 software (Molecular Devices; Sunnyvale, CA, USA) was used for data acquisition and analysis. All recordings were performed using an Axopatch 200B amplifier (Molecular Devices; Sunnyvale, CA, USA) at room temperature with a holding potential of −70 mV. […]
# To evaluate their pharmacological profile, the effects of Au-Mem on NMDAR-mediated currents were evaluated in cerebrocortical neurons using patch-clamp whole-cell recordings. […]
# [2] = system: sNMDARs; assay: Whole-cell patch-clamp recordings of spontaneous NMDAR-mediated sEPSCs in cerebrocortical neurons; type: cell-based, rat; details: free memantine at 10 μM
# Description: Whole-cell voltage-clamp recordings were performed from neurons after 14 days in vitro. […] All recordings were performed using an Axopatch 200B amplifier (Molecular Devices; Sunnyvale, CA, USA) at room temperature with a holding potential of −70 mV. Currents were digitally sampled at 10-20 kHz and filtered at 2-5 kHz.
# Currents were acquired using a Digidata 1322 interface and pClamp 10.1 software. All recordings were made at room temperature at a holding potential of −70 mV. The extracellular solution contained the following: 137 mM NaCl, 1 mM NaHCO3, 0.34 mM Na2HPO4, 5.36 mM KCl, 0.44 mM KH2PO4, 3 mM CaCl2, 5 mM HEPES, 22.2 mM glucose, 0.01 mM glycine, and 0.003 mM strychnine, pH adjusted to 7.2. […]
# The spontaneous NMDAR-mediated sEPSCs are usually presented as bursts, with each burst consisting of multiple EPSCs. […] Then, the values for charge transfer of each NMDAR-mediated sEPSC starting from the peak of the first NMDAR-mediated sEPSC and continuing to the baseline were determined, which took about 2 seconds in the majority of analyzed sEPSCs. […] Additionally, the frequency and amplitude of NMDAR-mediated sEPSCs were calculated for each experimental condition during about 100 seconds of recording time. The mean amplitude was calculated by averaging the amplitude of the maximal NMDA-mediated current in each burst. […]
smiles,measurement,setting,value
"CC12CC3CC(C)(C1)CC(N)(C3)C2 [memantine, 3,5-dimethyladamantan-1-amine]",IC50,[1],~1000 nM
same,effect on synaptic activity (sEPSCs),[2],almost completely inhibit; also recorded: did block it
